This passage reports TGI and GI50 results from PubChem BioAssay (NCI).

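Cells were grown in 96-well plates and exposed to each compound for 48 hours at five concentrations; endpoints were interpolated linearly between bracketing concentrations, or set to the highest concentration if not reached. At the GI50, growth is halved. At the TGI there is no net growth.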

Test systems include U251 CNS; IGROV1 ovarian; NCI/ADR-RES ovarian; MDA-MB-231 breast; HCC-2998 colon; SK-OV-3 ovarian; HCT-116 colon; CAKI-1 renal; NCI-H226 lung; OVCAR-8 ovarian.
Holding throughout (test): inhibition of tumour cell growth, NCI panel, 48 h

For the molecule `Nc1ncnc2c1ncn2CC(O)C(=O)O` (stereo not given), the TGI with U251 CNS, in the assay with IGROV1 ovarian, with NCI/ADR-RES ovarian, in the assay on MDA-MB-231 breast, with HCC-2998 colon and in the assay with SK-OV-3 ovarian was greater than 100 µM each time. Also, the TGI in the assay with HCT-116 colon, in the assay on CAKI-1 renal, in the assay on NCI-H226 lung and with OVCAR-8 ovarian was greater than 100 µM each time.

Take `CCc1cccc2c3c(sc12)C(c1ccc(Cl)cc1)C(C#N)=C(N)O3` (stereo not given): the GI50 was 0.496 µM with U251 CNS; 0.53 µM with IGROV1 ovarian; 0.349 µM in the assay on NCI/ADR-RES ovarian; 1.56 µM in the assay on MDA-MB-231 breast; 1.32 µM with HCC-2998 colon; 1.14 µM with SK-OV-3 ovarian. Also, the GI50 was 0.408 µM in the assay on HCT-116 colon, 0.403 µM in the assay on CAKI-1 renal, 0.881 µM in the assay with NCI-H226 lung and 0.869 µM in the assay on OVCAR-8 ovarian. The TGI in the assay on U251 CNS is 5.26 µM; in the assay with IGROV1 ovarian, 11.1 µM; in the assay with NCI/ADR-RES ovarian it was 2.24 µM; with MDA-MB-231 breast, 7.72 µM; in the assay on HCC-2998 colon it was 7.42 µM; in the assay on SK-OV-3 ovarian, 29.8 µM. For the same molecule, the TGI came out at 9.59 µM with HCT-116 colon, 14 µM with CAKI-1 renal, 9.43 µM in the assay on NCI-H226 lung and 11 µM in the assay with OVCAR-8 ovarian.
